Assay results published in ChEMBL document CHEMBL1152359, “Synthesis and structure-activity relationships of gamma-carboline derivatives as potent and selective cysLT(1) antagonists” (Bioorg Med Chem Lett, 2009).

Assay: in vivo
Details: rat

Row | bioavailability [%] | SMILES
1 | 63 | CC(C)(O)c1ccccc1CC[C@@H](SCC1(CC(=O)O)CC1)c1cccc(/C=C/c2ccc3ccc(Cl)cc3n2)c1 [MONTELUKAST]
2 | 25 | COc1cc(C(=O)NS(=O)(=O)c2ccccc2C)ccc1Cc1cn(C)c2ccc(NC(=O)OC3CCCC3)cc12 [ZAFIRLUKAST]
